Test results reported in patent EP0457318B1, “Alpha-Oxopyrrolo[2,3-b]indole acetic acids, esters, amides and related analogs, a process for their preparation and their use as medicaments” (HOECHST-ROUSSEL PHARMACEUTICALS INCORPORATED, priority 1990, dated 1991).
pIC50: −log10 of the molar value. Read-outs that look alike come from different tables or passages of the source.

Key:
Brain AChE = target: T1, Brain AChE (Rattus norvegicus, UniProt P37136); assay: In vitro inhibition of acetylcholinesterase activity in rat striatum (modified Ellman method); assay type: biochemical
T1 construct: corpora striata dissected free, weighed and homogenized in 19 volumes; from tissue; host or cells: rat corpora striata homogenate (male Wistar rats)
Source text: Cholinesterases are found throughout the body, both in the brain and in serum. However, only brain acetylcholinesterase (AChE) distribution is correlated with central cholinergic innervation. […] We have determined in vitro inhibition of acetylcholinesterase activity in rat striatum according to the method described below.
In Vitro Inhibition of Acetylcholinesterase Activity in Rat Striatum
The method described below was used in this invention for assaying anticholinesterase activity. This is a modification of the method of Ellman et al., Biochem. Pharmacol. 7, 88 (1961).
• 1. 0.05 M Phosphate buffer, pH 7.2 • (a) 6.85 g NaH2PO4·H2O/100 ml distilled H2O • (b) 13.40 g Na2HPO4·7H2O/100 ml distilled H2O • (c) add (a) to (b) until pH reaches 7.2 • (d) Dilute 1:10 • 2. Substrate in buffer • (a) 198 mg acetylthiocholine chloride (10 mM) • (b) q.s. to 100 ml with 0.05 M NaPO4, pH 7.2 (reagent 1) • 3. DTNB in buffer • (a) 19.8 mg 5,5-dithiobisnitrobenzoic acid (DTNB) (0.5 mM) • (b) q.s. to 100 ml with 0.05M NaPO4, pH 7.2 (reagent 1) • 4. A 2mM stock solution of the test drug is made up in a suitable solvent and q.s. to volume with 0.5 mM DTNB (reagent 3). Drugs are serially diluted (1:10) such that the final concentration (in cuvette) is 10^-4M and screened for activity. If active, IC50 values are determined from the inhibitory activity of subsequent concentrations.
Male Wistar rats are decapitated, brains rapidly removed, corpora striata dissected free, weighed and homogenized in 19 volumes (approximately 7 mg protein/ml) of 0.05 M phosphate buffer, pH 7.2 using a Potter-Elvehjem homogenizer. A 25 microliter aliquot of the homogenate is added to 1 ml of vehicle or various concentrations of the test drug and preincubated for 10 minutes at 37°C.
Enzyme activity is measured with the Beckman DU-50 spectrophotometer. This method can be used for IC50 determinations and for measuring kinetic constants.
Kinetics Soft-Pac Module #598273 (10) Program #6 Kindata: Source - Vis Wavelength - 412 nm Sipper - none Cuvettes - 2 ml cuvettes using auto 6-sampler Blank - 1 for each substrate concentration Interval time - 15 seconds (15 or 30 seconds for kinetics) Total time - 5 minutes (5 or 10 minutes for kinetics) Plot - yes Span - autoscale Slope - increasing Results - yes (gives slope) Factor - 1 […]
Blank values are determined for each run to control non enzymatic hydrolysis of substrate and these values are automatically substracted by the kindata program available on kinetics soft-pac module. This program also calculates the rate of absorbance change for each cuvette. […]
IC50 values are calculated from log-probit analysis.

[1] = tested on: Scopolamine Induced Memory Deficit; assay: Dark Avoidance Assay (reversal of scopolamine induced memory deficit); assay type: in vivo; settings: mice, s.c., retest after 24 hours
Procedure: In this assay mice are tested for their ability to remember an unpleasant stimulus for a period of 24 hours. A mouse is placed in a chamber that contains a dark compartment; a strong incandescent light drives it to the dark compartment, where an electric shock is administered through metal plates on the floor. The animal is removed from the testing apparatus and tested again, 24 hours later, for the ability to remember the electric shock.
If scopolamine, an anticholinergic that is known to cause memory impairment, is administered before an animal's initial exposure to the test chamber, the animal re-enters the dark compartment shortly after being placed in the test chamber 24 hours later. This effect of scopolamine is blocked by an active test compound, resulting in a greater interval before re-entry into the dark compartment.
The results for an active compound are expressed as the percent of a group of animals in which the effect of scopolamine is blocked, as manifested by an increased interval between being placed in the test chamber and re-entering the dark compartment.

[2] = rat striatum homogenate, preincubated 10 minutes at 37°C, 5 mM acetylthiocholine, pH 7.2, read-out: Inhibitory Concentration (IC50) Brain AChE

T1 sequence (P37136 32-614): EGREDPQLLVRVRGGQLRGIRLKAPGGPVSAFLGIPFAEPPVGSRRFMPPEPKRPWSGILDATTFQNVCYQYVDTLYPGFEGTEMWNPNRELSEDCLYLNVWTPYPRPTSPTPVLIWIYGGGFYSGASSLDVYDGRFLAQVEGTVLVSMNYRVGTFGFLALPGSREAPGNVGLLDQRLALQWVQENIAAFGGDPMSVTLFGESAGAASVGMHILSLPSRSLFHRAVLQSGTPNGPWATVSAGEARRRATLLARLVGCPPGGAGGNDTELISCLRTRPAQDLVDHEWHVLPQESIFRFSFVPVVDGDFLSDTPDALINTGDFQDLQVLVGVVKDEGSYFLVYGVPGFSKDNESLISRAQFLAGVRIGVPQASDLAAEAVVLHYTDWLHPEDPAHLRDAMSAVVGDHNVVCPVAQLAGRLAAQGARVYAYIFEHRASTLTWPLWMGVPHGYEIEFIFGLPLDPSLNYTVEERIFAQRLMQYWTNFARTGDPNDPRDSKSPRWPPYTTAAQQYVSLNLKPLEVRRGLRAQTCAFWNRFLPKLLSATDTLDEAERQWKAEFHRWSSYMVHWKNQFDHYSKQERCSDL

`CCCCOC(=O)C(=O)c1ccc2c(c1)C1(C)CCN(C)C1N2C` (stereo not drawn) [1,2,3,3a,8,8a-Hexahydro-α-oxo-1,3a,8-trimethyl-5-pyrrolo[2,3-b]indole acetic acid, n-butyl ester] was tested, and the pIC50 (Brain AChE; [2]) was 5.24.
For `CC[C@@H]1C(=O)OC[C@@H]1Cc1cncn1C` [Pilocarpine, reference compound], the “% of Animals with Scopolamine Induced Memory Deficit Reversal” value (“% of Animals” below) ([1]; dose 5.0 mg/kg of body weight) was 13%.
Work on `CN1CCC2(C)c3cc(C(=O)C(=O)OCc4ccccc4)ccc3N(C)C12` (stereo not drawn) [1,2,3,3a,8,8a-Hexahydro-α-oxo-1,3a,8-trimethyl-5-pyrrolo[2,3-b]indole acetic acid, phenylmethyl ester] yielded a pIC50 (Brain AChE; [2]) of 5.36.
In the case of `CCCCCOC(=O)C(=O)c1ccc2c(c1)C1(C)CCN(C)C1N2C` (stereo not drawn) [1,2,3,3a,8,8a-Hexahydro-α-oxo-1,3a,8-trimethyl-5-pyrrolo[2,3-b]indole acetic acid, n-pentyl ester], the pIC50 (Brain AChE; [2]) was 5.10.
In the case of `CN1CCC2(C)c3cc(C(=O)C(=O)OCCc4ccccc4)ccc3N(C)C12` (stereo not drawn) [1,2,3,3a,8,8a-Hexahydro-α-oxo-1,3a,8-trimethyl-5-pyrrolo[2,3-b]indole acetic acid, phenylethyl ester], the “% of Animals” value ([1]; dose 0.1 mg/kg of body weight) was 29%, the “% of Animals” value ([1]; dose 0.3 mg/kg of body weight) was 36% and the “% of Animals” value ([1]; dose 1.0 mg/kg of body weight) was 20%. For the same compound, the pIC50 (Brain AChE) was 5.04.
With `Nc1c2c(nc3ccccc13)CCCC2` [Tacrine, reference compound] the “% of Animals” value ([1]; dose 0.63 mg/kg of body weight) was 13%.
